Test results reported in patent EP2987533B1, “7-substituted piperazin-1-yl fluoroquinolone compounds, their use in the treatment of cancer, pharmaceutical compositions and a method for preparation” (priority 2014, dated 2016).

How the values were obtained:
Experiment in all cases: NCI one-dose SRB growth assay
Format in all cases: cell-based
[1] = system: SF-539; conditions: Homo sapiens; SF-539 (CNS Cancer), 10^-5 M, 48 h; read-out: % Growth Inhibition (GI %)
Outline: (§1)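 Screening used the NCI Drug Evaluation Branch protocol on roughly 60 human cancer cell lines. Compound exposure: 10^-5M, 48 h. Cell mass quantified by sulforhodamine B binding, read by spectrophotometer, reported as % growth compared with untreated control.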

[2] = system: M14; conditions: Homo sapiens; M14 (Melanoma), 10^-5 M, 48 h; read-out: % Growth Inhibition (GI %)
Outline: as §1

[3] = system: SK-MEL-28; conditions: Homo sapiens; SK-MEL-28 (Melanoma), 10^-5 M, 48 h; read-out: % Growth Inhibition (GI %)
Outline: as §1

[4] = system: SNB-19; conditions: Homo sapiens; SNB-19 (CNS Cancer), 10^-5 M, 48 h; read-out: % Growth Inhibition (GI %)
Outline: as §1

[5] = system: K-562; conditions: Homo sapiens, K562; K-562 (Leukemia), 10^-5 M, 48 h; read-out: % Growth Inhibition (GI %)
Outline: as §1

[6] = system: NCI/ADR-RES; conditions: Homo sapiens; NCI/ADR-RES (Ovarian Cancer), 10^-5 M, 48 h; read-out: % Growth Inhibition (GI %)
Outline: as §1

[7] = system: HCT-15; conditions: Homo sapiens; HCT-15 (Colon Cancer), 10^-5 M, 48 h; read-out: % Growth Inhibition (GI %)
Outline: as §1

[8] = system: TK-10; conditions: Homo sapiens; TK-10 (Renal Cancer), 10^-5 M, 48 h; read-out: % Growth Inhibition (GI %)
[9] = system: SN12C; conditions: Homo sapiens; SN12C (Renal Cancer), 10^-5 M, 48 h; read-out: % Growth Inhibition (GI %)
Outline: as §1

[10] = system: CCRF-CEM; conditions: Homo sapiens; CCRF-CEM (Leukemia), 10^-5 M, 48 h; read-out: % Growth Inhibition (GI %)
[11] = system: KM12; conditions: Homo sapiens; KM12 (Colon Cancer), 10^-5 M, 48 h; read-out: % Growth Inhibition (GI %)
Outline: as §1

[12] = system: SF-268; conditions: Homo sapiens; SF-268 (CNS Cancer), 10^-5 M, 48 h; read-out: % Growth Inhibition (GI %)
[13] = system: MOLT-4; conditions: Homo sapiens; MOLT-4 (Leukemia), 10^-5 M, 48 h; read-out: % Growth Inhibition (GI %)
Outline: as §1

[14] = system: SF-295; conditions: Homo sapiens; SF-295 (CNS Cancer), 10^-5 M, 48 h; read-out: % Growth Inhibition (GI %)
Outline: as §1

[15] = system: SW-620; conditions: Homo sapiens; SW-620 (Colon Cancer), 10^-5 M, 48 h; read-out: % Growth Inhibition (GI %)
[16] = system: OVCAR-4; conditions: Homo sapiens; OVCAR-4 (Ovarian Cancer), 10^-5 M, 48 h; read-out: % Growth Inhibition (GI %)
Outline: as §1

[17] = system: HCT-116; conditions: Homo sapiens; HCT-116 (Colon Cancer), 10^-5 M, 48 h; read-out: % Growth Inhibition (GI %)
Outline: as §1

[18] = system: MCF7; conditions: Homo sapiens; MCF7 (Breast Cancer), 10^-5 M, 48 h; read-out: % Growth Inhibition (GI %)
Outline: as §1

[19] = system: SK-MEL-2; conditions: Homo sapiens; SK-MEL-2 (Melanoma), 10^-5 M, 48 h; read-out: % Growth Inhibition (GI %)
[20] = system: DU-145; conditions: Homo sapiens; DU-145 (Prostate Cancer), 10^-5 M, 48 h; read-out: % Growth Inhibition (GI %)
Outline: as §1

[21] = system: HOP-62; conditions: Homo sapiens; HOP-62 (Non-Small Cell Lung Cancer), 10^-5 M, 48 h; read-out: % Growth Inhibition (GI %)
Outline: as §1

[22] = system: NCI-H522; conditions: Homo sapiens; NCI-H522 (Non-Small Cell Lung Cancer), 10^-5 M, 48 h; read-out: % Growth Inhibition (GI %)
Outline: as §1

[23] = system: PC-3; conditions: Homo sapiens; PC-3 (Prostate Cancer), 10^-5 M, 48 h; read-out: % Growth Inhibition (GI %)
Outline: as §1

[24] = system: IGROV1; conditions: Homo sapiens, IGROV-1; IGROV1 (Ovarian Cancer), 10^-5 M, 48 h; read-out: % Growth Inhibition (GI %)
[25] = system: SK-MEL-5; conditions: Homo sapiens; SK-MEL-5 (Melanoma), 10^-5 M, 48 h; read-out: % Growth Inhibition (GI %)
Outline: as §1

[26] = system: UACC-62; conditions: Homo sapiens; UACC-62 (Melanoma), 10^-5 M, 48 h; read-out: % Growth Inhibition (GI %)
Outline: as §1

Structure (SMILES): O=C(O)c1cn(C2CC2)c2cc(N3CCN(S(=O)(=O)c4ccc(Cl)c(Cl)c4)CC3)c(F)cc2c1=O [Compound 3b]
- inhibition at 10 µM [1]: 88.6%
- inhibition at 10 µM [2]: 81.5%
- inhibition at 10 µM [3]: 51.5%
- inhibition at 10 µM [4]: 75.3%
- inhibition at 10 µM [5]: 83.1%
- inhibition at 10 µM [6]: 46.5%
- inhibition at 10 µM [7]: 93.8%
- inhibition at 10 µM [8]: 66.8%
- inhibition at 10 µM [9]: 89.6%
- inhibition at 10 µM [10]: 83.1%
- inhibition at 10 µM [11]: 85.4%
- inhibition at 10 µM [12]: 80.4%
- inhibition at 10 µM [13]: 96.6%
- inhibition at 10 µM [14]: > 100%
- inhibition at 10 µM [15]: 79.3%
- inhibition at 10 µM [16]: 79.2%
- inhibition at 10 µM [17]: 96%
- inhibition at 10 µM [18]: 86.5%
- inhibition at 10 µM [19]: > 100%
- inhibition at 10 µM [20]: 82.8%
- inhibition at 10 µM [21]: 84.8%
- inhibition at 10 µM [22]: > 100%
- inhibition at 10 µM [23]: 83.8%
- inhibition at 10 µM [24]: 70.7%
- inhibition at 10 µM [25]: 97.9%
- inhibition at 10 µM [26]: 70.4%

Structure (SMILES): O=c1[nH]cc(F)c(=O)[nH]1 [Compound 5-FU, 5-fluorouracil, reference compound]
- inhibition at 10 µM [1]: > 100%
- inhibition at 10 µM [4]: 65.9%
- inhibition at 10 µM [5]: 42.3%
- inhibition at 10 µM [6]: 47.6%
- inhibition at 10 µM [7]: 26.5%
- inhibition at 10 µM [8]: 66.9%
- inhibition at 10 µM [9]: 54%
- inhibition at 10 µM [10]: 57.1%
- inhibition at 10 µM [11]: 40.7%
- inhibition at 10 µM [12]: 59%
- inhibition at 10 µM [13]: 43.1%
- inhibition at 10 µM [14]: 69.1%
- inhibition at 10 µM [15]: 50.1%
- inhibition at 10 µM [16]: 59.4%
- inhibition at 10 µM [17]: 17.8%
- inhibition at 10 µM [18]: 11.5%
- inhibition at 10 µM [19]: 95.5%
- inhibition at 10 µM [20]: 35.5%
- inhibition at 10 µM [21]: 47.8%
- inhibition at 10 µM [22]: 58%
- inhibition at 10 µM [23]: 58.2%
- inhibition at 10 µM [24]: 51.2%
- inhibition at 10 µM [25]: 33.7%
- inhibition at 10 µM [26]: 39.7%

Structure (SMILES): CCn1cc(C(=O)O)c(=O)c2cc(F)c(N3CCN(S(=O)(=O)c4c(C)cc(C)cc4C)CC3)cc21 [Compound 6a]
- inhibition at 10 µM [1]: 20.1%
- inhibition at 10 µM [2]: 24.4%
- inhibition at 10 µM [3]: < 10%
- inhibition at 10 µM [4]: 10.1%
- inhibition at 10 µM [5]: 20.1%
- inhibition at 10 µM [6]: 15.2%
- inhibition at 10 µM [7]: 28.5%
- inhibition at 10 µM [8]: < 10%
- inhibition at 10 µM [9]: 11.5%
- inhibition at 10 µM [10]: 18.2%
- inhibition at 10 µM [11]: 12.8%
- inhibition at 10 µM [12]: 16.3%
- inhibition at 10 µM [13]: 24.1%
- inhibition at 10 µM [14]: 51.6%
- inhibition at 10 µM [15]: < 10%
- inhibition at 10 µM [16]: < 10%
- inhibition at 10 µM [17]: 20.9%
- inhibition at 10 µM [18]: < 10%
- inhibition at 10 µM [19]: 11.3%
- inhibition at 10 µM [20]: < 10%
- inhibition at 10 µM [21]: 28.5%
- inhibition at 10 µM [22]: 13.5%
- inhibition at 10 µM [23]: 38.9%
- inhibition at 10 µM [24]: 20.6%
- inhibition at 10 µM [25]: 20.5%
- inhibition at 10 µM [26]: 24.1%

Structure (SMILES): Cc1cc(C)c(S(=O)(=O)N2CCN(c3cc4c(cc3F)c(=O)c(C(=O)O)cn4C3CC3)CC2)c(C)c1 [Compound 6b]
- inhibition at 10 µM [1]: 53.5%
- inhibition at 10 µM [2]: 36.5%
- inhibition at 10 µM [3]: 30.9%
- inhibition at 10 µM [4]: 33.7%
- inhibition at 10 µM [5]: 36.5%
- inhibition at 10 µM [6]: 30.1%
- inhibition at 10 µM [7]: 44.9%
- inhibition at 10 µM [8]: 13.5%
- inhibition at 10 µM [9]: 86.1%
- inhibition at 10 µM [10]: 62.7%
- inhibition at 10 µM [11]: 39.3%
- inhibition at 10 µM [12]: 43.3%
- inhibition at 10 µM [13]: 39%
- inhibition at 10 µM [14]: 66.8%
- inhibition at 10 µM [15]: 20.2%
- inhibition at 10 µM [16]: 24.4%
- inhibition at 10 µM [17]: 67.8%
- inhibition at 10 µM [18]: 46%
- inhibition at 10 µM [19]: < 10%
- inhibition at 10 µM [20]: 28.6%
- inhibition at 10 µM [21]: 42.7%
- inhibition at 10 µM [22]: 32.7%
- inhibition at 10 µM [23]: 32.1%
- inhibition at 10 µM [24]: 64.3%
- inhibition at 10 µM [25]: 45.1%
- inhibition at 10 µM [26]: 23.4%
